This passage reports inhibition results from publication PMC5540273, “Progress towards a public chemogenomic set for protein kinases and a call for contributions” (PLoS ONE, 2017).

Common to all, as to assay: KINOMEscan competition binding
The target of test [1] is ERK3 (Homo sapiens, UniProt Q16659). To be noted: read-out: %Inh ERK3.
Test [2] has as its target ABL1-phosphorylated (Homo sapiens, UniProt P00519). To be noted: read-out: %Inh ABL1-phosphorylated.
Test [3] addresses FGFR3 (Homo sapiens, UniProt P22607). To be noted: read-out: %Inh FGFR3.
The target of test [4] is T1, DCAMKL1 (Homo sapiens, UniProt O15075).
T1 sequence (O15075 1-740): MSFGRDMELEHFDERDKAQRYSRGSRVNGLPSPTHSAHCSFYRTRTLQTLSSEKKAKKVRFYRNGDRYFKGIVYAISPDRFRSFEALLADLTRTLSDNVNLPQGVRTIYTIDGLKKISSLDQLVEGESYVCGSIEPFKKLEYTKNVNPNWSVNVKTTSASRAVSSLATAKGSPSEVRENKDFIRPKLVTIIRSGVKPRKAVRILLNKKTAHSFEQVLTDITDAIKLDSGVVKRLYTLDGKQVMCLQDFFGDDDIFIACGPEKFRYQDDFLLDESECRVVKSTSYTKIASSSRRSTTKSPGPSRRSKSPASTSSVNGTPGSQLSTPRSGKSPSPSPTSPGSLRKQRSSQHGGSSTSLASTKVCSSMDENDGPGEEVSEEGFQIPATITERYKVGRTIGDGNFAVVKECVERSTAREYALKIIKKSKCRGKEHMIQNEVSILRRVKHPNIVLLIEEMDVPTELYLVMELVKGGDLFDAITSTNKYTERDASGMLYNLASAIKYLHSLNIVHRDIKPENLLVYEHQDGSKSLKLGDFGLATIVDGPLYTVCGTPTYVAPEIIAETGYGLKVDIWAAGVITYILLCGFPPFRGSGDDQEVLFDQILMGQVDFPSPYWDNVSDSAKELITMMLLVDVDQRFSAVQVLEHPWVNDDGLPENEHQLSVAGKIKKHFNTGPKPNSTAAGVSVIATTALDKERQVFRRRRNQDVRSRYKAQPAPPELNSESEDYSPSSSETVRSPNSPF
The settings on record: read-out: %Inh DCAMKL1.

Test [5] addresses T2, CSNK1A1L (Homo sapiens, UniProt Q8N752).
T2 sequence (Q8N752 1-337): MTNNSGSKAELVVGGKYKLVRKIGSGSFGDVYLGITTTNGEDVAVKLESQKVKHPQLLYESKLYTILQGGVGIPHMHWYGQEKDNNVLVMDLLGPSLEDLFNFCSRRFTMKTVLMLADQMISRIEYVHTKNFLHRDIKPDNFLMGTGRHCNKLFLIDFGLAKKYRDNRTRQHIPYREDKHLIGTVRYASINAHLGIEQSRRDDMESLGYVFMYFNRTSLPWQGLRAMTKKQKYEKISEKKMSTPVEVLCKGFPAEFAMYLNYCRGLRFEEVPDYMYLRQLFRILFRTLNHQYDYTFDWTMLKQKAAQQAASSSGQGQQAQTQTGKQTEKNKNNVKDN
To be noted: read-out: %Inh CSNK1A1L.

For test [6], the target named is FRK (Homo sapiens, UniProt P42685). The settings on record: read-out: %Inh FRK.
FRK, sequence (P42685 whole entry): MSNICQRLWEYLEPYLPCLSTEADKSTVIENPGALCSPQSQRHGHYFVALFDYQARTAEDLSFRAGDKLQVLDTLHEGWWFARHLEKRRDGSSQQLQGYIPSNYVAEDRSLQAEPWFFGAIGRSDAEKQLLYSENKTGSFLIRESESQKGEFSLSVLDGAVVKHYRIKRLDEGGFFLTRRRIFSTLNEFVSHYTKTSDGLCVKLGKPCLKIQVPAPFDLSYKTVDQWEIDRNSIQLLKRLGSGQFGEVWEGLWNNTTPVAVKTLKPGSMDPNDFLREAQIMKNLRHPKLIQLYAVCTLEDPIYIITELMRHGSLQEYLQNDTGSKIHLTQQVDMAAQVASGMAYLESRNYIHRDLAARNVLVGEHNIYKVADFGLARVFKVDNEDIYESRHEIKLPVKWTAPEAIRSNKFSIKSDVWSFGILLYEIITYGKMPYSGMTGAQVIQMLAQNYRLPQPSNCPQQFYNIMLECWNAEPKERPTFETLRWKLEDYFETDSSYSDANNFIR
Test [7] addresses FGFR2 (Homo sapiens, UniProt P21802). The settings on record: read-out: %Inh FGFR2.
The target of test [8] is T3, GAK (Homo sapiens, UniProt O14976).
T3 sequence (O14976 1-1311): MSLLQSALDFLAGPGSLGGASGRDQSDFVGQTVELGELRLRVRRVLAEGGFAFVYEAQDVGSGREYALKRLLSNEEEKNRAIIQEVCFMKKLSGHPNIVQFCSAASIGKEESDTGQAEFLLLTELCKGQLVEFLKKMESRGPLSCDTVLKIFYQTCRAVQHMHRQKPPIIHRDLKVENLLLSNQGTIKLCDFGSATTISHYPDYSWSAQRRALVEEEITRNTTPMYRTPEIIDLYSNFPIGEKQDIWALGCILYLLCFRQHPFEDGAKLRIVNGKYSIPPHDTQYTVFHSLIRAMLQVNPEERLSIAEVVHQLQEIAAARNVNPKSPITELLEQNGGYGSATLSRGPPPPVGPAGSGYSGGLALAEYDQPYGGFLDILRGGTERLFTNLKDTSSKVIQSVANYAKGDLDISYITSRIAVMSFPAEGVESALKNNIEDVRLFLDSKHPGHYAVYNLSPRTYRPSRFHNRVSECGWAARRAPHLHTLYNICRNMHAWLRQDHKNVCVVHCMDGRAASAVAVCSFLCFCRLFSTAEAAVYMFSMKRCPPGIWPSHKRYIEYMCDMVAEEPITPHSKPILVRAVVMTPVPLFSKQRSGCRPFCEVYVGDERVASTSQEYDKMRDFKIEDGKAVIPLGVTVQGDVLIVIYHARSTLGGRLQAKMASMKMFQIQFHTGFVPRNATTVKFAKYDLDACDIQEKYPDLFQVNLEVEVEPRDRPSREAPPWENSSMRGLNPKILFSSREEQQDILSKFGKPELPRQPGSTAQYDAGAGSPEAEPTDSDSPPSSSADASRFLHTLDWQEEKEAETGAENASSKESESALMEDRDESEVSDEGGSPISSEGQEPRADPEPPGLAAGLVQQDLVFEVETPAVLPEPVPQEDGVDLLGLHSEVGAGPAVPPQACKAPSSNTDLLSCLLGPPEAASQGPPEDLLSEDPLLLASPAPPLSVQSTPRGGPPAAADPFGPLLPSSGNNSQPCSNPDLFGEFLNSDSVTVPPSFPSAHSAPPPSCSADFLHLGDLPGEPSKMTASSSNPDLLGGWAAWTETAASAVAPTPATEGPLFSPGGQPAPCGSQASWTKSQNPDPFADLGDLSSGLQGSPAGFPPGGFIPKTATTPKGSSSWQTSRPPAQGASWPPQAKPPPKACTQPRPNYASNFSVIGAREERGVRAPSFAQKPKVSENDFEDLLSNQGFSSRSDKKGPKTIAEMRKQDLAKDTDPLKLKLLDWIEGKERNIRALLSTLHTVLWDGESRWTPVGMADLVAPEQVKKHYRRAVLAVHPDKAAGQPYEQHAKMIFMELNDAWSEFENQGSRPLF
The settings on record: read-out: %Inh GAK.

FGFR2, sequence (P21802 22-821): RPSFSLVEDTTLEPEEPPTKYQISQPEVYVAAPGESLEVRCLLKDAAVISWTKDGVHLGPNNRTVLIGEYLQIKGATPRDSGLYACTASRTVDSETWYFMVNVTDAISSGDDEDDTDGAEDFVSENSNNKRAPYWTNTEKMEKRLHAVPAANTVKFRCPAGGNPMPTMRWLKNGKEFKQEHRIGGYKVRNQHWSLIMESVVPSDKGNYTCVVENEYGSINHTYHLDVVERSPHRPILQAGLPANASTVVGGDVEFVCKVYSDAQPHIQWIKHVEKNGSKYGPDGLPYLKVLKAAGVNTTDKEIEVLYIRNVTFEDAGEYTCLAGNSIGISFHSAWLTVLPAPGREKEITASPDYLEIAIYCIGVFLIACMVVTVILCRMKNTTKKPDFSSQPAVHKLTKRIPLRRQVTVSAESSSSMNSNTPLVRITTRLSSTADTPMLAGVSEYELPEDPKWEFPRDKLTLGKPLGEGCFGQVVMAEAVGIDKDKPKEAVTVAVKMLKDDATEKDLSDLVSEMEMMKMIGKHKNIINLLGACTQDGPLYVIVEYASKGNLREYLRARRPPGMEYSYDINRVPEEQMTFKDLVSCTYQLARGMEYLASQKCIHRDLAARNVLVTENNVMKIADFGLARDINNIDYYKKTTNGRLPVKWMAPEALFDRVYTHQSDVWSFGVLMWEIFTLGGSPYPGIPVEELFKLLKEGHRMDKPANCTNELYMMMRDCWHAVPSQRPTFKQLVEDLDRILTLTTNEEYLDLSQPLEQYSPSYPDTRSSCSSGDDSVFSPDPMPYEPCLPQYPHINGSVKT
FGFR3, sequence (P22607 23-806): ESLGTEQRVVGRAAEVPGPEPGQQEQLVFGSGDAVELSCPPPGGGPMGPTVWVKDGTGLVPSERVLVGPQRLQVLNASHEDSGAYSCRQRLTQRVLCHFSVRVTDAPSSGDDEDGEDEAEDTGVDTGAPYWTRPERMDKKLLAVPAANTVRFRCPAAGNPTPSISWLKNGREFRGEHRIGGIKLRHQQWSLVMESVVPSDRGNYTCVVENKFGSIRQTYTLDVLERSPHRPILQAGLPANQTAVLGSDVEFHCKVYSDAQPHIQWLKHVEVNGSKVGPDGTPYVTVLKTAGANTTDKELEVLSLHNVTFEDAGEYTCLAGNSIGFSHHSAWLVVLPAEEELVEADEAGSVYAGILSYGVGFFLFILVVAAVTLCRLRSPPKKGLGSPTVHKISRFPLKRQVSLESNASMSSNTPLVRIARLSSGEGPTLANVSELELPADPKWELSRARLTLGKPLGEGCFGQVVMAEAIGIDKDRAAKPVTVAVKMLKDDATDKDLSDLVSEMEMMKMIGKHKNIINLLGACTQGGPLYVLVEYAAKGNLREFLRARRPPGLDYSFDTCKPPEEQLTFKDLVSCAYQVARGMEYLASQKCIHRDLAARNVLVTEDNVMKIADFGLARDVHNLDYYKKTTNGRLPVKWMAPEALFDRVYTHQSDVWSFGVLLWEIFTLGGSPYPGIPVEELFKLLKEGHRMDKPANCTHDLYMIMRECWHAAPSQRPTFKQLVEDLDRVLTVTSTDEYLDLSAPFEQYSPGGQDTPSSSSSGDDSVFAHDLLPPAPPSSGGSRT
ERK3, sequence (Q16659 whole entry): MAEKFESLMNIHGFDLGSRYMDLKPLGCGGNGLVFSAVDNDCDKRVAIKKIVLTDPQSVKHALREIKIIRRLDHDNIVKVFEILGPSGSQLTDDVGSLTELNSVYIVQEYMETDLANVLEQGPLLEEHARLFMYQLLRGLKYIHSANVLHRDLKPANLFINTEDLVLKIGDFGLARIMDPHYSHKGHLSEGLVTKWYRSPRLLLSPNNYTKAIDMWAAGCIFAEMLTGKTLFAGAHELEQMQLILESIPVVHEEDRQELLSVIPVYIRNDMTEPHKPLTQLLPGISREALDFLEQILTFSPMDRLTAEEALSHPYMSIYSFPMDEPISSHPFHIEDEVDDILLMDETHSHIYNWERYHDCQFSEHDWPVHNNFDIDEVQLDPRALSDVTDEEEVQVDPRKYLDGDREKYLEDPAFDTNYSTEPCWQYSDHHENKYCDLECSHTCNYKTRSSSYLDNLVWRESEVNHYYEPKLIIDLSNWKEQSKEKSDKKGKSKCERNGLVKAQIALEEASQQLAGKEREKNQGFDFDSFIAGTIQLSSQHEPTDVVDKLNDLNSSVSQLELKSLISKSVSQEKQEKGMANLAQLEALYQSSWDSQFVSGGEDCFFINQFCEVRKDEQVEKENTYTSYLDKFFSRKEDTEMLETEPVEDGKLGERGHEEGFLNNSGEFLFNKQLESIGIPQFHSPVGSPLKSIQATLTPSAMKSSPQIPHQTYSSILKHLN
ABL1-phosphorylated, sequence (P00519 whole entry): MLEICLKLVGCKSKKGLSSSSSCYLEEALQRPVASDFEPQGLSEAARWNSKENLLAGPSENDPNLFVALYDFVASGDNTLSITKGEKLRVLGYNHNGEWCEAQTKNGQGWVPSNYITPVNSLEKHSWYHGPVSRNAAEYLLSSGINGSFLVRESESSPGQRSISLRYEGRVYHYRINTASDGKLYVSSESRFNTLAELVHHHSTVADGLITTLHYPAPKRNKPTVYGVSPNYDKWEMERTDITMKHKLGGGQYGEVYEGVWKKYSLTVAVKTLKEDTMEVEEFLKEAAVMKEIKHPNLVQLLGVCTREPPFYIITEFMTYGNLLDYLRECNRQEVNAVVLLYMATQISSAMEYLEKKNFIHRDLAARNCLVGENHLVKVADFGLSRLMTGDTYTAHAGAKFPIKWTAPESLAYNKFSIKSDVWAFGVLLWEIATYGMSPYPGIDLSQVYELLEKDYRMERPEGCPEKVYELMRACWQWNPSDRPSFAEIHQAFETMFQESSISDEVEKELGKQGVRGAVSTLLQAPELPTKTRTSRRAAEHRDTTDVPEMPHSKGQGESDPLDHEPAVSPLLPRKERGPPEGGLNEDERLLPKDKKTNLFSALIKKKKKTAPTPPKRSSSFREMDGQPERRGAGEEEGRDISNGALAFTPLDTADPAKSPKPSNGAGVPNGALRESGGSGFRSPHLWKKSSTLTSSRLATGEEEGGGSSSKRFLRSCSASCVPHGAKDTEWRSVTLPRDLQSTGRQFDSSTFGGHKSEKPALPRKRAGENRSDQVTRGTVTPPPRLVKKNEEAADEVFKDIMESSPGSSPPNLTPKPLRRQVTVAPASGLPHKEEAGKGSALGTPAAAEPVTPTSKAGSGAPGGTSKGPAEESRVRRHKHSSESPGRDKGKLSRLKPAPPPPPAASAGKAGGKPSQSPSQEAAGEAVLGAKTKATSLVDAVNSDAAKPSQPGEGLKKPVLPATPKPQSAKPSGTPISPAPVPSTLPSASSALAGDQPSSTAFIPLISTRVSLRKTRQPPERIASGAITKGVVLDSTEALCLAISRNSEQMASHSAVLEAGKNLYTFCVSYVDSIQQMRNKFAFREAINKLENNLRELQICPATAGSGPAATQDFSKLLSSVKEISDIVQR

With `COc1cccc(OC)c1C(=O)Nc1cccc(-c2nn3ccccc3c2-c2ccnc(Nc3cccc(F)c3)n2)c1` [UNC10225310A], the inhibition at 1 µM in test [1] amounted to 1%; in test [2], 18%; in test [3], 0%; in test [4] it was 16%; in test [5], 0%; in test [6] it was 16%. For the same compound, the inhibition at 1 µM in test [7] was found to be 0%; in test [8], 6%.
As for `O=c1cc(N2CCOCC2)nc2n(Cc3cccc(Cl)c3Cl)c(C3CC3)nn12` [UNC10225469A], the inhibition at 1 µM in test [1] is 0%; in test [2], 20%; in test [3] it was 0%; in test [4] it was 0%; in test [5] it was 0%; in test [6], 0%. Also, the inhibition at 1 µM turned out to be 1% in test [7] and 11% in test [8].
Turning to `Cn1cc(-c2cnc(N)c3c(-c4ccc5c(c4)CCN5C(=O)Cc4ccccc4)csc23)cn1` [UNC10225012A], the inhibition at 1 µM in test [1] turned out to be 0%; in test [2] it was 89%; in test [3], 49%; in test [4] it was 0%; in test [5], 0%; in test [6], 38%. The inhibition at 1 µM in test [7] amounted to 40%; in test [8] it was 11%.
Consider `CS(=O)(=O)Cc1ccc(Nc2nccc(-c3c(-c4cccc(NC(=O)C5CCCCC5)c4)nn4ncccc34)n2)cc1` [UNC10225159A], for which the inhibition at 1 µM in test [1] was found to be 0%; in test [2] it was 15%; in test [3] it was 16%; in test [4] it was 0%; in test [5], 0%; in test [6], 4%. Besides, the inhibition at 1 µM in test [7] was 41%; in test [8] it was 14%.
For `Cc1ccc(NC(=O)Nc2cccc(C(F)(F)F)c2)cc1` [UNC10225187A], the inhibition at 1 µM in test [1] was 0%; in test [2], 23%; in test [3], 5%; in test [4], 0%; in test [5], 0%; in test [6], 0%. Besides, the inhibition at 1 µM in test [7] and in test [8] was 0% throughout.
